In patent US20030224978A1, “Compounds and methods for modulating apoptosis” (McGill University, priority 1996, published 2003):
“Also recorded” adds a separate entry of the source.

What was measured:
human skin = assay: Human skin permeability, penetration of fluorescent markers, Franz Cell apparatus; conditions: compared to N-Ac-CHGVC-NH2
Protocol: A third cell adhesion assay involves evaluating the effect of a cyclic peptide on permeability of adherent epithelial and/or endothelial cell layers. For example, the effect of permeability on human skin may be evaluated. Such skin may be derived from a natural source or may be synthetic. Human abdominal skin for use in such assays may generally be obtained from humans at autopsy within 24 hours of death. Briefly, a cyclic peptide and a test marker (e.g., the fluorescent markers Oregon Green™ and Rhodamine Green™ Dextran) may be dissolved in a sterile buffer, and the ability of the marker to penetrate through the skin and into a receptor fluid may be measured using a Franz Cell apparatus (Franz, Curr. Prob. Dermatol. 7:58-68, 1978; Franz, J. Invest. Dermatol. 64:190-195, 1975). In general, a modulating agent that enhances the permeability of human skin results in a statistically significant increase in the amount of marker in the receptor compartment after 6-48 hours in the presence of 500 μg/mL modulating agent. This assay evaluates the effect of a modulating agent on E-cadherin mediated cell adhesion.
Abdominal skin from humans at autopsy within 24 hours of death was used in these assays. The effect of N-Ac-CHAVC-NH2 (SEQ ID NO:10) and N-Ac-CHGVC-NH2 (SEQ ID NO:20), used at a concentration of 500 μg/ml or 2.5 mg/ml, on the penetration of two fluorescent markers, Oregon Green 488 (charge −1, MW 386 daltons) and Rhodamine Green 3000 Dextran (no charge, MW 3000 daltons) through human skin was then evaluated utilizing a Franz Cell apparatus (Franz, Curr. Prob. Dermatol. 7:58-68, 1978; Franz, J. Invest. Dermatol. 64:190-195, 1975). The peptides and markers were dissolved in sterile phosphate buffer, pH 7.2, and phosphate buffer was used as the receptor fluid. 150 μl of solution containing 0.2 mg Oregon Green and 1.0 mg Rhodamine Green was used to evaluate 500 μg/ml peptide; 200 μl of solution containing 0.05 mg Oregon Green and 1.250 mg Rhodamine Green was used to evaluate 2.5 mg/ml peptide. The solution was placed on top of the epidermal side of the skin, and the penetration of the markers through the skin was assessed using a fluorescent spectrophotometric method (in a Perkin Elmer 650-105 Fluorescence Spectrophotometer, and comparing the reading to a standard curve) at 6, 12, 24, 36, and 48 hours after the start of the experiment. The fluorescent units were converted to a concentration unit of microgram/5 ml (volume of the receiver compartment) using a standard curve and regression analysis equations. The curve was linear for the concentrations tested for both markers (r^2=1 for OrG and 0.997 for RhG). For each peptide and marker combination, the experiment was performed in triplicate.

control 3T3 cells = assay: Neurite outgrowth of rat cerebellar neurons on control 3T3 cells (Example 14); assay type: cell-based; conditions: increasing concentrations
Protocol: Cell culture and neurite outgrowth assays. Co-cultures of cerebellar neurons on monolayers of control 3T3 cells and monolayers of transfected 3T3 cells that express physiological levels of chick N-cadherin or human L1 were established as previously described (Williams et al., Neuron 13:583-594, 1994). In brief, 80,000 3T3 cells (control and transfected) were plated into individual chambers of an eight-chamber tissue culture slide coated with polylysine and fibronectin and cultured in DMEM/10% FCS. After 24 hours, when confluent monolayers had formed, the medium was removed and 3000 cerebellar neurons isolated from post-natal day 2-3 rats were plated into each well in SATO media (Doherty et al., Nature 343:464-466, 1990) supplemented with 2% FCS. All of the test peptides were added immediately before the neurons as a 2×stock prepared in SATO/2% FCS. […] The mean length of the longest neurite per cell was measured for 150-200 neurons sampled in replicate cultures as previously described (Williams et al., Neuron 13:583-594, 1994). […] Dose-response curves were evaluated and the EC50 values determined.
Effects of cyclic HAV peptides on N-cadherin function. […] The cells were then fixed and the length of the longest neurite on 150-200 neurons was determined by standard assay, as described above. […]

[1] = system: 3T3 cells not expressing N-cadherin, N-CAM, or L1 (control cells); assay: Neurite outgrowth of mouse cerebellar neurons on control 3T3 cells (Example 2); assay type: cell-based; conditions: 500 μg/ml
Protocol: Neurons were cultured on monolayers of 3T3 cells transfected with cDNA encoding N-cadherin essentially as described by Doherty and Walsh, Curr. Op. Neurobiol. 4:49-55, 1994; Williams et al., Neuron 13:583-594, 1994; Hall et al., Cell Adhesion and Commun. 3:441-450, 1996; Doherty and Walsh, Mol. Cell. Neurosci. 8:99-111, 1994; Safell et al., Neuron 18:231-242, 1997. Briefly, monolayers of control 3T3 fibroblasts and 3T3 fibroblasts that express N-cadherin were established by overnight culture of 80,000 cells in individual wells of an 8-chamber well tissue culture slide. 3000 cerebellar neurons isolated from post-natal day 3 mouse brains were cultured for 18 hours on the various monolayers in control media (SATO/2%FCS), or media supplemented with various concentrations of the cyclic peptide N-Ac-CHAVC-NH2 (SEQ ID NO:10) or a control peptide without the HAV sequence (N-Ac-CHGVC-NH2 (SEQ ID NO:20)). The cultures were then fixed and stained for GAP43 which specifically binds to the neurons and their neurites. The length of the longest neurite on each GAP43 positive neuron was then measured by computer assisted morphometry.

L1 = L1 (Homo sapiens, UniProt P32004); assay: Neurite outgrowth of mouse cerebellar neurons on 3T3 cells expressing L1 (Example 2); assay type: cell-based; parameters: expressed in transfected cells; host or cells: 3T3 cells; conditions: 500 μg/mL
L1, sequence (P32004 20-1257): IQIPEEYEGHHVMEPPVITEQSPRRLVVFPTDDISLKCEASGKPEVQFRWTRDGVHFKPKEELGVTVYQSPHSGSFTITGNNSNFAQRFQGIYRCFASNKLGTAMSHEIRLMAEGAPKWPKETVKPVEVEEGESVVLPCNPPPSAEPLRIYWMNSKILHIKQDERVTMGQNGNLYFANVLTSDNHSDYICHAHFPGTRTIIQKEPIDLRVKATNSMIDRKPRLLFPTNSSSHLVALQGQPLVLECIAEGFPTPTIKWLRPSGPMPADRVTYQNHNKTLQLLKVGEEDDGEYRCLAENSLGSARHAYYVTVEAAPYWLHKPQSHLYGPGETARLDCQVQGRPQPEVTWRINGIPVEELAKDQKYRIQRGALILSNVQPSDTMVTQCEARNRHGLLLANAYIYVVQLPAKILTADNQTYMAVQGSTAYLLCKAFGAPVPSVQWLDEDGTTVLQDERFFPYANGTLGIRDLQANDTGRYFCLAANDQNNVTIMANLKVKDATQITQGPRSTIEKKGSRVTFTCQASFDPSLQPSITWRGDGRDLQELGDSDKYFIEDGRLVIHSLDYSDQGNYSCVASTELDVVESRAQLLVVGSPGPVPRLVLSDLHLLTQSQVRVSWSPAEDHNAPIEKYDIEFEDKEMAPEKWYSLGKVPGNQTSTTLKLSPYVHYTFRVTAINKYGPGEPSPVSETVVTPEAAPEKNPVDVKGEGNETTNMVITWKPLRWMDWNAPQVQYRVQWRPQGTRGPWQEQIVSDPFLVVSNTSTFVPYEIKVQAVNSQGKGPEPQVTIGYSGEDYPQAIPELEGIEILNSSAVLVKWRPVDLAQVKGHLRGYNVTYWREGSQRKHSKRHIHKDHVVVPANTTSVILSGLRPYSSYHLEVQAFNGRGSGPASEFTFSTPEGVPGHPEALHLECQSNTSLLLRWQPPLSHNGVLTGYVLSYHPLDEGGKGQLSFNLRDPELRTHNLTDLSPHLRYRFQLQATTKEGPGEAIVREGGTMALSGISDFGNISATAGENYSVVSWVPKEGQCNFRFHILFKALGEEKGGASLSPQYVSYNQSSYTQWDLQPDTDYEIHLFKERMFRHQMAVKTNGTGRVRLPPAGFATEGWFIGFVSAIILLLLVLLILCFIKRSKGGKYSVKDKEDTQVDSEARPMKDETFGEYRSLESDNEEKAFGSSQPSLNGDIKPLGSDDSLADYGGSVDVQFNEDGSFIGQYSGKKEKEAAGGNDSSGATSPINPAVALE

Compound: CC(=O)N[C@H]1CSSC[C@@H](C(N)=O)NC(=O)[C@H](C(C)C)NC(=O)[C@H](C)NC(=O)[C@H](Cc2c[nH]cn2)NC1=O [N-Ac-CHAVC-NH2, N-Ac-Cys-His-Ala-Val-Cys-NH2]
- effect on penetration of Oregon Green through the skin, in words (human skin; 500 μg/ml): slightly increased the penetration of Oregon Green
- effect on penetration of Rhodamine Green through the skin, in words (human skin; 500 μg/ml): significantly increased
- effect on penetration of Oregon Green through the skin, in words (human skin; 2.5 mg/ml): increased the penetration of Oregon Green
- effect on penetration of Rhodamine Green through the skin, in words (human skin; 2.5 mg/ml): significantly increased
- effect on neurite extension over control 3T3 cells (control 3T3 cells): no significant effect on neurite extension over control 3T3 cells; also recorded: had no effect on the basal growth over 3T3 cells
- effect on neurite outgrowth on control 3T3 cells [1]: did not inhibit neurite outgrowth
- effect on neurite outgrowth on 3T3 cells expressing L1 (L1): did not inhibit neurite outgrowth
